Measured values: US8916607B2, “Use of piperphentonamine or salts thereof in manufacture of medicaments for treating brain diseases” (Guangzhou Municipal Zhongwei Biotechnology Limited Company, priority 2009, dated 2014)
Marks after values point to notes of the source that are not given here.

Columns and labels:
[1] = tested on: cerebral hemorrhage in rats induced by collagenase; assay: ICH model induced by collagenase: NO in brain tissue by nitrate reductase method; type: in vivo, Wistar rats
Description: (§1) Rats in each group were anesthetized by chloral hydrate, decollated rapidly and the brain take were taken out. The brain tissue around the hole was cut and procured, weighed precisely, and made into a 10% tissue homogenate using a glass homogenizer in an ice bath environment with physiological saline as homogenized medium, the supernatant of which was taken to be determined the content of NO by nitrate reductase method.

[2] = tested on: cerebral hemorrhage in rats induced by collagenase; assay: ICH model induced by collagenase: NE in brain tissue by ELISA; type: in vivo, Wistar rats; details: ICH rat brain tissue
Description: as §1, with “brains” for “brain take”, “NE activity using ELISA” for “content of NO by nitrate reductase”

[3] = tested on: cerebral hemorrhage in rats induced by collagenase; assay: cerebral hemorrhage (ICH) model induced by collagenase: neurology score; type: in vivo, Wistar rats
Protocol: (§2) Animals are randomly divided into five groups: sham operation 24 h group; cerebral hemorrhage (Intracerebral Haemorrhage, ICH)+physiological saline group (model); ICH+piperphentonamine hydrochloride (JBTA, 2 mg/kg) group, called as high dose group (h); ICH+piperphentonamine hydrochloride (JBTA, 0.5 mg/kg) group, called as low dose group (1); ICH+nimodipine (Nim, 0.5 mg/kg) group. The last four groups are divided into 4 h, 8 h, 12 h, 24 h as four time subgroups respectively. Physiological saline solution, piperphentonamine hydrochloride and nimodipine are intravenously injected from rat tail before the ICH model is established for 30 minutes, once a day. Injecting slowly, the total amount of drug liquid is controlled in 1 ml/200 g body weight: physiological saline solution also being administered in 1 ml/200 g body weight. Each group has 7 Wistar rats.
The specific steps are as following: after the experimental rats are anesthetized by injecting chloral hydrate (350 mg/kg) in intraperitoneal, and being supinely immobilized in a stereotaxic instrument, and make the rat anterior fontanelle and posterior fontanelle in the same plane according to localization method reported by BAO Xinmin, etc. Being locally disinfected by iodine, incising in the midmost of scalp, scissoring the periosteum, exposing the anterior fontanelle, drilling a 1 mm diameter hole with thickness close to duramater in 3 mm left to the midline by number five needle. Inserting needle along the hole by the micro syringe fixed on a stereotaxic, the depth of needle insertion is 5.8 mm (i.e., the caudate nucleus position), slowly injecting collagenase VI 0.5 U. Injection time is 3 min, keeping for 5 min after injection, then pull the needle out, suturing the skin, and putting the rat into cage and feed. Inserting the needle and not injecting drugs in sham operation group, the remaining operations is the same as the above.
After animals wake up, scoring nerve function defect of each group immediately according to the grading classification standards of nerve defect reported by Bedersog (litter improved).
Choosing the animals with the score of 3 and more into the experiment, the animals are bred in different cages, eat and drink normally. Temperature is controlled in 20 to 25° C., score in 4 h, 8 h, 12 h, 24 h after establishment of the model.
(§3) Divide the animals randomly into five groups: sham operation (sham) 24 h group; ICH+normal saline group (model); ICH+piperphentonamine maleate (4 mg/kg) group, namely high dose group (h); ICH+piperphentonamine maleate (2 mg/kg) group, namely low dose group (1); ICH+nimodipine (0.5 mg/kg) group. The last four groups were divided into four time subgroup of 4 h, 8 h, 12 h and 24 h. Physiological solution, piperphentonamine maleate and nimodipine were injected intravenous from rat tail vein 30 minutes before the ICH model made, once a day. Inject slowly, the total amount of drug liquid was controlled in 1 ml/200 g body weight: normal saline was also administered in 1 ml/200 g body weight. Each group has seven Wistar rats.

[4] = tested on: cerebral hemorrhage in rats induced by collagenase; assay: ICH model induced by collagenase: brain water content (BWC); type: in vivo, Wistar rats
Protocol: as §2
Observing the influence of piperphentonamine hydrochloride on the brain water content of intracerebral hemorrhage in rats in 4 h, 8 h, 12 h, 24 h, the animals of the different groups is anesthetized by chloral hydrate at predetermined time point, and decollating and taking the brain rapidly, putting the brain tissue on a filter paper wetted by saline solution to prevent water evaporating. Removing the leptomeninges and blood, cutting and taking the front half portion of brain tissue centered by the hole for the insertion needle, weighing precisely (accurate to 0.1 mg). It is controlled in 5 min to take the brain to finish weigh. Then putting in 95° C. constant temperature oven for 24 h, weighing the dry weight. The brain water content is calculated according to Blliot formula: BWC=(wet weight−dry weight)/wet weight×100%.
as §3

[5] = tested on: cerebral hemorrhage in rats induced by collagenase; assay: ICH model induced by collagenase: histopathological observation; type: in vivo, Wistar rats
Protocol: Influence of piperphentonamine hydrochloride on pathological morphology of cerebral hemorrhage in rats was observed. Each group animals were selected randomly, anesthetized deeply by chloral hydrate at predetermined time point, decollated and the brain were taken out rapidly, then, the brain tissue slices with hematoma (about 5 mm) were cut, and put into 10% formaldehyde solution immediately, fixed for 24 h followed by dehydration by graded ethanol, transparentizing by xylene, immersing in paraffin, embedding, slicing (5 μm), HE staining and sealing. The pathological changes area and the pathological change of the adjacent brain tissue were observed by optical microscope.

[6] = tested on: cerebral hemorrhage of rats (autologous blood); assay: cerebral hemorrhage by autologous blood into caudate nucleus: edema (dry-wet weight) and forelimb placement; type: in vivo, SD rats; details: local administering 3 h after hemorrhage
Protocol: Adult male SD rats were divided randomly into normal saline group, cerebral hemorrhage group and piperphentonamine maleate group. A model of cerebral hemorrhage was established by the methods of injecting 50 μl autologous blood into caudate nucleus of rats, wherein, the position of caudate nucleus was determined according to “the rat cerebral in stereotaxic atlas”: the injection position is at the point of front to anterior fontanelle of 0.2 mm, right to the sagittal suture of 3.0 mm, depth of 6.3 mm. The change of cerebral edema was observed by the dry-wet weight method; the behavior was observed by forelimb placement experiment. The cerebral hemorrhage group was only injected without medicine, with the treatment time of at 3 h after hemorrhage. The edema measurement time was in 1, 2, 3, 7, 14 days after hemorrhage, the behavioral observation time phase was in 1, 2, 3, 7, 14, 28 days after hemorrhage, each group of each time phase had 6 rats.

[7] = tested on: cerebral edema of mice caused by closed cerebral trauma; assay: closed cerebral trauma model of mice, brain water content; type: in vivo, Kunming mice; details: 2 mg/kg iv, brain taken after 24 h
Protocol: There were 10 mice in each group.
The closed cerebral trauma model of mice being established after fasting for 16 hours, administering intravenously to each group, striping and taking the brain of mouse after 24 hours, weighing the wet weight, and drying at 70° C. for 24 hours, then weighing the dry weight, and calculating brainwater content; the brain water content which is higher than normal values indicates the cerebral edema.
The grouping method, administer method and model preparation were referred to example 2.

[8] = tested on: cultured cerebral neurons; assay: NMDA induces neuron injury in primary cultured neurons; type: cell-based, rat; details: drug 50 mmol/L; NMDA 50 mmol/L, 12 h
human brain disease = assay: research in treating human brain diseases (no details); type: in vivo
[9] = 2 mg/kg iv 30 min before ICH, 4 h (example 12)
[10] = 2 mg/kg iv 30 min before ICH, 8 h (example 12)
[11] = 2 mg/kg iv 30 min before ICH, 12 h (example 12)
[12] = 2 mg/kg iv 30 min before ICH, 24 h (example 12)
[13] = 4 mg/kg iv 30 min before ICH, 8 h
[14] = 4 mg/kg iv 30 min before ICH, 12 h
[15] = 4 mg/kg iv 30 min before ICH, 24 h

CN(CCC(=O)/C=C/c1ccc(O)cc1)CCc1ccc2c(c1)OCO2.O=C(O)/C=C\C(=O)O [piperphentonamine maleate]
NO ([1]; 2 mg/kg, ICH rat brain tissue (example 12)): 2.16 ± 0.05^Δ μmol/g pro
NO ([1]; 4 mg/kg, ICH rat brain tissue): 1.48 ± 0.03^Δ μmol/g pro
NE ([2]; high dose group (h), 4 mg/kg): 2.37 ± 0.07^ΔΔ ng/ml
NE ([2]; low dose group (l), 2 mg/kg): 2.78 ± 0.05^ΔΔ ng/ml
neurological score [3, 9]: 3.61 ± 0.7
neurological score [3, 10]: 3.43 ± 0.82
neurological score [3, 11]: 2.92 ± 0.95
neurological score [3, 12]: 2.57 ± 1.28
neurological score ([3]; 4 mg/kg iv 30 min before ICH, 4 h): 3.25 ± 0.59
neurological score [3, 13]: 3.08 ± 0.95
neurological score [3, 14]: 1.88 ± 0.64*^Δ
neurological score [3, 15]: 1.37 ± 0.46**^ΔΔ
brain water content [4, 9]: 62.66 ± 0.66^Δ
brain water content [4, 10]: 63.88 ± 0.55^ΔΔ
brain water content [4, 11]: 64.86 ± 0.59^ΔΔ
brain water content [4, 12]: 66.33 ± 0.5^ΔΔ
brain water content ([4]; 4 mg/kg iv 30 min before ICH, 4 h, in %): 62.19 ± 0.54
brain water content [4, 13]: 62.53 ± 0.42^Δ**
brain water content [4, 14]: 63.38 ± 0.15^ΔΔ**
brain water content [4, 15]: 64.62 ± 0.58^ΔΔ**
histopathological observation ([5]; large dose (4 mg/kg) pretreatment): obviously reduce tissue edema and inflammatory cell infiltration after cerebral hemorrhage
histopathological observation ([5]; small dose maleate (2 mg/kg) or nimodipine (0.5 mg/kg) in advance): could ease the pathological changes above-mentioned in different levels
cerebral edema after cerebral hemorrhage [6]: could obviously relieve cerebral edema after cerebral hemorrhage
neural function defect after cerebral hemorrhage (forelimb placement) [6]: improve the neural function defect after cerebral hemorrhage

piperphentonamine
water content of cerebra (%) [7]: 78.31 ± 5.72 %
mortality [8]: 30%
pathological morphology of cerebral hemorrhage ([5]; small doses (0.5 mg/kg) in advance): could ease the pathological changes above-mentioned in different levels
treating human brain and other diseases (human brain disease): obvious effect and clinical significance
